“And” between values parts separate entries of the source, which are not always exact repeats. Equal entries are not always repeated. Records with an inconclusive call do not appear.
Tested on: BDF1 mice, s.c. Lewis lung carcinoma, T/C %
Assay: NCI In Vivo Anticancer Drug Screen. Data for tumor model Lewis Lung Carcinoma (subcutaneous) in B6D2F1 (BDF1) mice
Summary of the method: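 Transplanted tumors grown in mice; compound vs vehicle dosing; endpoint survival or tumor size; ratio T/C.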

`OC(C1CO1)C(O)C1CO1` (centres undefined) was tested, and the T/C (endpoint: mean tumor weight (est.), dose: 1.0 mg/kg/injection, schedule: Q01DX009 (ip), vehicle: saline, higher = larger tumour) was 73 % of control, the T/C (endpoint: mean tumor weight (est.), dose: 1.0 mg/kg/injection, schedule: Q04DX003 (ip), vehicle: saline, higher = larger tumour) was 65 % of control and the T/C (endpoint: mean tumor weight (est.), dose: 2.0 mg/kg/injection, schedule: Q01DX009 (ip), vehicle: saline, higher = larger tumour) was 46 % of control. The T/C (endpoint: mean tumor weight (est.), dose: 2.0 mg/kg/injection, schedule: Q04DX003 (ip), vehicle: saline, higher = larger tumour) was 45 % of control, the T/C (endpoint: mean tumor weight (est.), dose: 4.0 mg/kg/injection, schedule: Q04DX003 (ip), vehicle: saline, higher = larger tumour) was 63 % of control and the T/C (endpoint: median survival time, dose: 1.0 mg/kg/injection, schedule: Q01DX009 (ip), vehicle: saline, higher = longer survival) was 95 % of control. For the same molecule, the T/C (endpoint: median survival time, dose: 1.0 mg/kg/injection, schedule: Q04DX003 (ip), vehicle: saline, higher = longer survival) was 104 % of control, the T/C (endpoint: median survival time, dose: 2.0 mg/kg/injection, schedule: Q01DX009 (ip), vehicle: saline, higher = longer survival) was 117 % of control and the T/C (endpoint: median survival time, dose: 2.0 mg/kg/injection, schedule: Q04DX003 (ip), vehicle: saline, higher = longer survival) was 104 % of control. For the same molecule, the T/C (endpoint: median survival time, dose: 4.0 mg/kg/injection, schedule: Q04DX003 (ip), vehicle: saline, higher = longer survival) was 123 % of control.
With `C1CCNC1` the T/C (endpoint: mean tumor weight, dose: 1.56 mg/kg/injection, schedule: Q01DX011 (ip), vehicle: saline, higher = larger tumour) was 65 % of control, the T/C (endpoint: mean tumor weight, dose: 3.13 mg/kg/injection, schedule: Q01DX011 (ip), vehicle: saline, higher = larger tumour) was 87 % of control and the T/C (endpoint: mean tumor weight, dose: 6.25 mg/kg/injection, schedule: Q01DX011 (ip), vehicle: saline, higher = larger tumour) was 117 % of control. The T/C (endpoint: mean tumor weight, dose: 25.0 mg/kg/injection, schedule: Q01DX011 (ip), vehicle: saline, higher = larger tumour) was 73 % of control and the T/C (endpoint: mean tumor weight, dose: 50.0 mg/kg/injection, schedule: Q01DX011 (ip), vehicle: saline, higher = larger tumour) was 67 % of control.
`NC(C/[N+]([O-])=N/O)C(=O)O` (centres undefined) was tested, and the T/C (endpoint: median survival time, dose: 8.78 mg/kg/injection, schedule: Q01DX010 (ip), vehicle: alkali diluted with saline, higher = longer survival) was 103 % of control and 105 % of control, the T/C (endpoint: median survival time, dose: 13.2 mg/kg/injection, schedule: Q01DX010 (ip), vehicle: alkali diluted with saline, higher = longer survival) was 120 % of control and 121 % of control and the T/C (endpoint: median survival time, dose: 19.8 mg/kg/injection, schedule: Q01DX010 (ip), vehicle: alkali diluted with saline, higher = longer survival) was 102 % of control. For the same molecule, the T/C (endpoint: median survival time, dose: 29.6 mg/kg/injection, schedule: Q01DX010 (ip), vehicle: alkali diluted with saline, higher = longer survival) was 105 % of control, the T/C (endpoint: median survival time, dose: 44.4 mg/kg/injection, schedule: Q01DX010 (ip), vehicle: alkali diluted with saline, higher = longer survival) was 114 % of control and 116 % of control and the T/C (endpoint: median survival time, dose: 66.7 mg/kg/injection, schedule: Q01DX010 (ip), vehicle: alkali diluted with saline, higher = longer survival) was 117 % of control. For the same molecule, the T/C (endpoint: median survival time, dose: 100.0 mg/kg/injection, schedule: Q01DX010 (ip), vehicle: alkali diluted with saline, higher = longer survival) was 98 % of control and the T/C (endpoint: median survival time, dose: 1000.0 mg/kg/injection, schedule: Q01DX001 (ip), vehicle: saline, higher = longer survival) was 96 % of control.
With `O=NN(CCCl)C(=O)Nc1ccc(CCO)cc1` the T/C (endpoint: mean tumor weight, dose: 10.0 mg/kg/injection, schedule: Q01DX001 (ip), vehicle: carboxymethylcellulose (CMC), higher = larger tumour) was 43 % of control and the T/C (endpoint: mean tumor weight, dose: 20.0 mg/kg/injection, schedule: Q01DX001 (ip), vehicle: carboxymethylcellulose (CMC), higher = larger tumour) was 22 % of control.
With `Nc1ncnc2c1ncn2C1CCCO1` (centres undefined) the T/C (endpoint: mean tumor weight, dose: 50.0 mg/kg/injection, schedule: Q01DX011 (ip), vehicle: other, higher = larger tumour) was 75 % of control, the T/C (endpoint: mean tumor weight, dose: 100.0 mg/kg/injection, schedule: Q01DX011 (ip), vehicle: other, higher = larger tumour) was 56 % of control and the T/C (endpoint: mean tumor weight, dose: 200.0 mg/kg/injection, schedule: Q01DX011 (ip), vehicle: other, higher = larger tumour) was 37 % of control.
With `NC(=O)c1ccc(NC(=O)CCC(=O)Nc2ccc(C(N)=O)cn2)nc1` the T/C (endpoint: mean tumor weight, dose: 1.25 mg/kg/injection, schedule: Q01DX011 (ip), vehicle: carboxymethylcellulose (CMC), higher = larger tumour) was 54 % of control and the T/C (endpoint: mean tumor weight, dose: 2.5 mg/kg/injection, schedule: Q01DX011 (ip), vehicle: carboxymethylcellulose (CMC), higher = larger tumour) was 24 % of control.
For `O=C(O)C(=O)c1ccc(-c2ccccc2)cc1`, the T/C (endpoint: mean tumor weight, dose: 35.0 mg/kg/injection, schedule: Q01DX011 (ip), vehicle: methylcellulose (MC), higher = larger tumour) was 82 % of control, the T/C (endpoint: mean tumor weight, dose: 50.0 mg/kg/injection, schedule: Q01DX011 (ip), vehicle: methylcellulose (MC), higher = larger tumour) was 68 % of control and the T/C (endpoint: mean tumor weight, dose: 75.0 mg/kg/injection, schedule: Q01DX011 (ip), vehicle: methylcellulose (MC), higher = larger tumour) was 52 % of control. The T/C (endpoint: mean tumor weight, dose: 110.0 mg/kg/injection, schedule: Q01DX011 (ip), vehicle: methylcellulose (MC), higher = larger tumour) was 52 % of control.
